Tests used:
kochia = experiment: Test F preemergence; type: in vivo, Kochia scoparia; conditions: 21 days, scale 0 to 100
Outline: (§1)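 Seeds are planted in a blend of loam and sand. Chemicals in a surfactant-containing non-phytotoxic solvent are applied before emergence. After 21 days under greenhouse conditions, plants are compared with controls and scored visually, 0–100.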

sandbur = experiment: Test F preemergence; type: in vivo, Cenchrus echinatus; conditions: 21 days, scale 0 to 100
Outline: as §1

bromegrass, downy = experiment: Test D preemergence; type: in vivo, Bromus tectorum; conditions: Bromus tectorum, pre-emergence
Outline: (§2)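 After treatment, visual injury versus untreated plants, 0–100 scale, assessed at 7 to 21 days. Applications were made preemergence to silt loam-sown seed and postemergence to seedlings 2–18 cm high in potting medium.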

speedwell = experiment: Test D postemergence; type: in vivo, Veronica persica; conditions: Veronica persica, post-emergence
Outline: as §2

ragweed = experiment: Test F preemergence; type: in vivo, Ambrosia elatior; conditions: 21 days, scale 0 to 100
Text: (§3) Seeds of plant species selected from bermudagrass (Cynodon dactylon), surinam grass (Brachiaria decumbens), large (Lg) crabgrass (Digitaria sanguinalis), crabgrass, naked (naked crabgrass, Digitaria nuda), foxtail, green (green foxtail, Setaria viridis), johnsongrass (Sorghum halepense), kochia (Kochia scoparia), morningglory (pitted morningglory, Ipomoea lacunosa), nutsedge, purple (purple nutsedge, Cyperus rotundus), ragweed (common ragweed, Ambrosia elatior), mustard, black (black mustard, Brassica nigra), guineagrass (Panicum maximum), dallisgrass (Paspalum dilatatum), barnyardgrass (Echinochloa crus-galli), sandbur (southern sandbur, Cenchrus echinatus), sowthistle (common sowthistle, Sonchus oleraceous), Italian ryegrass (Lolium multiflorum), signalgrass (broadleaf signalgrass, Brachiaria platyphylla), dayflower (Virginia (VA) dayflower, Commelina virginica), bluegrass (annual bluegrass, Poa annua), quackgrass (Elytrigia repens), mallow (common mallow, Malva sylvestris), buckwheat, wild (wild buckwheat, Polygonum convolvulus), leafy spurge (Euphorbia esula), chickweed (common chickweed, Stellaria media), wild poinsettia (Euphorbia heterophylla), and pigweed (Amaranthus retroflexus) were planted into a blend of loam soil and sand and treated preemergence with test chemicals formulated in a non-phytotoxic solvent mixture which included a surfactant.
(§4) Treated plants and controls were maintained in a greenhouse for 21 days, after which time all species were compared to controls and visually evaluated. Plant response ratings, summarized in Table F, are based on a scale of 0 to 100 where 0 is no effect and 100 is complete control. A dash (-) response means no test result.

windgrass = experiment: Test D postemergence; type: in vivo, Apera spica-venti; conditions: Apera spica-venti, post-emergence
Outline: as §2

green foxtail = experiment: Test D preemergence; type: in vivo, Setaria viridis; conditions: Setaria viridis, pre-emergence
Outline: as §2

buckwheat, wild = experiment: Test F preemergence; type: in vivo, Polygonum convolvulus; conditions: 21 days, scale 0 to 100
Text: as §3, §4

canarygrass = experiment: Test D postemergence; type: in vivo, Phalaris minor; conditions: Phalaris minor, post-emergence
Outline: as §2

galium = experiment: Test D postemergence; type: in vivo, Galium aparine; conditions: Galium, post-emergence
Outline: as §2

lambsquarters = experiment: Test D preemergence; type: in vivo, Chenopodium album; conditions: Chenopodium album, pre-emergence
Outline: as §2

crabgrass, naked = experiment: Test F preemergence; type: in vivo, Digitaria nuda; conditions: 21 days, scale 0 to 100
Text: as §3, §4

chamomile = experiment: Test D preemergence; type: in vivo, Matricaria inodora; conditions: Tripleurospermum inodorum, pre-emergence
Outline: as §2

wild radish = experiment: Test D preemergence; type: in vivo, Raphanus raphanistrum; conditions: Raphanus raphanistrum, pre-emergence
Outline: as §2

How did the “Plant response rating, Kochia” value (kochia; 16 g ai/ha) turn out when `N#Cc1cccc(Oc2ncc(Cl)cn2)c1-n1cc(OCC(F)(F)F)cn1` [Compound 274, 3-[(5-chloro-2-pyrimidinyl)oxy]-2-[4-(2,2,2-trifluoroethoxy)-1H-pyrazol-1-yl]benzonitrile] was run?
Its value is 100.

What about the “Plant response rating, Kochia” value (kochia; 31 g ai/ha) of the same compound?
The value was 100.

What about the “Plant response rating, Kochia” value (kochia; 62 g ai/ha) of the same compound?
The value was 100.

What about the “Plant response rating, Kochia” value (kochia; 125 g ai/ha) of the same compound?
Its value is 100.

And the “Plant response rating, Kochia” value (kochia; 250 g ai/ha)?
The value was 100.

What about the “Plant response rating, Sandbur” value (sandbur; 16 g ai/ha) of the same compound?
Its value is 5.

What about the “Plant response rating, Sandbur” value (sandbur; 31 g ai/ha) of the same compound?
The value was 20.

What about the “Plant response rating, Sandbur” value (sandbur; 62 g ai/ha) of the same compound?
The value was 70.

What about the “Plant response rating, Sandbur” value (sandbur; 125 g ai/ha) of the same compound?
The value was 95.

And the “Plant response rating, Sandbur” value (sandbur; 250 g ai/ha)?
Its value is 100.

And the pest or weed control at 16 g/ha (bromegrass, downy; 16 g ai/ha, scale 0 (no effect) to 100 (complete control), read-out: Plant response rating, Bromegrass, Downy)?
The pest or weed control at 16 g/ha was 0%.

What about the pest or weed control at 31 g/ha (bromegrass, downy; 31 g ai/ha, scale 0-100, read-out: Plant response rating, Bromegrass, Downy) of the same compound?
Its pest or weed control at 31 g/ha is 5%.

And the pest or weed control at 62 g/ha (bromegrass, downy; 62 g ai/ha, scale 0-100, read-out: Plant response rating, Bromegrass, Downy)?
The pest or weed control at 62 g/ha was 5%.

And the pest or weed control at 125 g/ha (bromegrass, downy; 125 g ai/ha, scale 0-100, read-out: Plant response rating, Bromegrass, Downy)?
Its pest or weed control at 125 g/ha is 35%.

What about the pest or weed control at 16 g/ha (speedwell; 16 g ai/ha, scale 0-100, read-out: Plant response rating, Speedwell) of the same compound?
The pest or weed control at 16 g/ha was 75%.

What about the pest or weed control at 31 g/ha (speedwell; 31 g ai/ha, scale 0 to 100 (0 no effect, 100 complete control), read-out: Plant response rating, Speedwell) of the same compound?
Its pest or weed control at 31 g/ha is 100%.

What about the pest or weed control at 62 g/ha (speedwell; 62 g ai/ha, scale 0 to 100 (0 no effect, 100 complete control), read-out: Plant response rating, Speedwell) of the same compound?
The pest or weed control at 62 g/ha was 85%.

And the pest or weed control at 125 g/ha (speedwell; 125 g ai/ha, scale 0 to 100 (0 no effect, 100 complete control), read-out: Plant response rating, Speedwell)?
The pest or weed control at 125 g/ha was 100%.

And the “Plant response rating, Ragweed” value (ragweed; 16 g ai/ha)?
The value was 30.

And the “Plant response rating, Ragweed” value (ragweed; 31 g ai/ha)?
Its value is 30.

And the “Plant response rating, Ragweed” value (ragweed; 62 g ai/ha)?
Its value is 30.

And the “Plant response rating, Ragweed” value (ragweed; 125 g ai/ha)?
The value was 70.

What about the “Plant response rating, Ragweed” value (ragweed; 250 g ai/ha) of the same compound?
The value was 100.

What about the pest or weed control at 16 g/ha (windgrass; 16 g ai/ha, scale 0-100, read-out: Plant response rating, Windgrass) of the same compound?
The pest or weed control at 16 g/ha was 15%.

And the pest or weed control at 31 g/ha (windgrass; 31 g ai/ha, scale 0 to 100 (0 no effect, 100 complete control), read-out: Plant response rating, Windgrass)?
The pest or weed control at 31 g/ha was 25%.

What about the pest or weed control at 62 g/ha (windgrass; 62 g ai/ha, scale 0 to 100 (0 no effect, 100 complete control), read-out: Plant response rating, Windgrass) of the same compound?
Its pest or weed control at 62 g/ha is 35%.

What about the pest or weed control at 125 g/ha (windgrass; 125 g ai/ha, scale 0 to 100 (0 no effect, 100 complete control), read-out: Plant response rating, Windgrass) of the same compound?
Its pest or weed control at 125 g/ha is 35%.

And the pest or weed control at 16 g/ha (green foxtail; 16 g ai/ha, scale 0 (no effect) to 100 (complete control), read-out: Plant response rating, Foxtail, Green)?
The pest or weed control at 16 g/ha was 15%.

And the pest or weed control at 31 g/ha (green foxtail; 31 g ai/ha, scale 0-100, read-out: Plant response rating, Foxtail, Green)?
The pest or weed control at 31 g/ha was 75%.

What about the pest or weed control at 62 g/ha (green foxtail; 62 g ai/ha, scale 0-100, read-out: Plant response rating, Foxtail, Green) of the same compound?
Its pest or weed control at 62 g/ha is 100%.

What about the pest or weed control at 125 g/ha (green foxtail; 125 g ai/ha, scale 0-100, read-out: Plant response rating, Foxtail, Green) of the same compound?
Its pest or weed control at 125 g/ha is 100%.

What about the “Plant response rating, Buckwheat, Wild” value (buckwheat, wild; 16 g ai/ha) of the same compound?
Its value is 100.

What about the “Plant response rating, Buckwheat, Wild” value (buckwheat, wild; 31 g ai/ha) of the same compound?
Its value is 100.

And the “Plant response rating, Buckwheat, Wild” value (buckwheat, wild; 62 g ai/ha)?
The value was 100.

And the “Plant response rating, Buckwheat, Wild” value (buckwheat, wild; 125 g ai/ha)?
The value was 100.

What about the “Plant response rating, Buckwheat, Wild” value (buckwheat, wild; 250 g ai/ha) of the same compound?
Its value is 100.

What about the pest or weed control at 16 g/ha (canarygrass; 16 g ai/ha, scale 0-100, read-out: Plant response rating, Canarygrass) of the same compound?
The pest or weed control at 16 g/ha was 15%.

What about the pest or weed control at 31 g/ha (canarygrass; 31 g ai/ha, scale 0 to 100 (0 no effect, 100 complete control), read-out: Plant response rating, Canarygrass) of the same compound?
The pest or weed control at 31 g/ha was 20%.

And the pest or weed control at 62 g/ha (canarygrass; 62 g ai/ha, scale 0 to 100 (0 no effect, 100 complete control), read-out: Plant response rating, Canarygrass)?
The pest or weed control at 62 g/ha was 25%.

And the pest or weed control at 125 g/ha (canarygrass; 125 g ai/ha, scale 0 to 100 (0 no effect, 100 complete control), read-out: Plant response rating, Canarygrass)?
The pest or weed control at 125 g/ha was 30%.

What about the pest or weed control at 16 g/ha (galium; 16 g ai/ha, scale 0-100, read-out: Plant response rating, Galium) of the same compound?
The pest or weed control at 16 g/ha was 70%.

What about the pest or weed control at 31 g/ha (galium; 31 g ai/ha, scale 0 to 100 (0 no effect, 100 complete control), read-out: Plant response rating, Galium) of the same compound?
Its pest or weed control at 31 g/ha is 70%.

What about the pest or weed control at 62 g/ha (galium; 62 g ai/ha, scale 0 to 100 (0 no effect, 100 complete control), read-out: Plant response rating, Galium) of the same compound?
The pest or weed control at 62 g/ha was 75%.

And the pest or weed control at 125 g/ha (galium; 125 g ai/ha, scale 0 to 100 (0 no effect, 100 complete control), read-out: Plant response rating, Galium)?
Its pest or weed control at 125 g/ha is 85%.

And the pest or weed control at 16 g/ha (lambsquarters; 16 g ai/ha, scale 0 (no effect) to 100 (complete control), read-out: Plant response rating, Lambsquarters)?
Its pest or weed control at 16 g/ha is 20%.

And the pest or weed control at 31 g/ha (lambsquarters; 31 g ai/ha, scale 0-100, read-out: Plant response rating, Lambsquarters)?
Its pest or weed control at 31 g/ha is 90%.

What about the pest or weed control at 62 g/ha (lambsquarters; 62 g ai/ha, scale 0-100, read-out: Plant response rating, Lambsquarters) of the same compound?
The pest or weed control at 62 g/ha was 100%.

What about the pest or weed control at 125 g/ha (lambsquarters; 125 g ai/ha, scale 0-100, read-out: Plant response rating, Lambsquarters) of the same compound?
Its pest or weed control at 125 g/ha is 100%.

And the “Plant response rating, Crabgrass, Naked” value (crabgrass, naked; 16 g ai/ha)?
The value was 100.

And the “Plant response rating, Crabgrass, Naked” value (crabgrass, naked; 31 g ai/ha)?
The value was 100.

And the “Plant response rating, Crabgrass, Naked” value (crabgrass, naked; 62 g ai/ha)?
Its value is 100.

And the “Plant response rating, Crabgrass, Naked” value (crabgrass, naked; 125 g ai/ha)?
Its value is 100.

And the “Plant response rating, Crabgrass, Naked” value (crabgrass, naked; 250 g ai/ha)?
Its value is 100.

And the pest or weed control at 16 g/ha (chamomile; 16 g ai/ha, scale 0 (no effect) to 100 (complete control), read-out: Plant response rating, Chamomile)?
Its pest or weed control at 16 g/ha is 5%.

And the pest or weed control at 62 g/ha (chamomile; 62 g ai/ha, scale 0-100, read-out: Plant response rating, Chamomile)?
Its pest or weed control at 62 g/ha is 35%.

And the pest or weed control at 125 g/ha (chamomile; 125 g ai/ha, scale 0-100, read-out: Plant response rating, Chamomile)?
The pest or weed control at 125 g/ha was 65%.

What about the pest or weed control at 16 g/ha (wild radish; 16 g ai/ha, scale 0 (no effect) to 100 (complete control), read-out: Plant response rating, Radish, Wild) of the same compound?
The pest or weed control at 16 g/ha was 5%.

What about the pest or weed control at 31 g/ha (wild radish; 31 g ai/ha, scale 0 (no effect) to 100 (complete control), read-out: Plant response rating, Radish, Wild) of the same compound?
Its pest or weed control at 31 g/ha is 5%.

And the pest or weed control at 125 g/ha (wild radish; 125 g ai/ha, scale 0-100, read-out: Plant response rating, Radish, Wild)?
Its pest or weed control at 125 g/ha is 85%.
